Measured values from PubChem BioAssay (NCI).
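Test compounds were applied to cells in 96-well plates for 48 hours at 5 doses. Here, GI50 denotes the concentration required for 50% inhibition of growth. Definition used: TGI = concentration required for complete inhibition of growth.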

Key:
Test in all cases: NCI tumour cell line growth inhibition, 48 h
SK-MEL-5 melanoma = test system: SK-MEL-5 melanoma
UACC-257 melanoma = test system: UACC-257 melanoma
DU-145 prostate = test system: DU-145 prostate
HOP-62 NSCLC = test system: HOP-62 NSCLC
EKVX NSCLC = test system: EKVX NSCLC
SW-620 colon = test system: SW-620 colon
A549 NSCLC = test system: A549 NSCLC
CAKI-1 renal = test system: CAKI-1 renal
786-0 renal = test system: 786-0 renal
HT29 colon = test system: HT29 colon
LOX IMVI melanoma = test system: LOX IMVI melanoma
MDA-MB-231 breast = test system: MDA-MB-231 breast
MCF7 breast = test system: MCF7 breast
IGROV1 ovarian = test system: IGROV1 ovarian
T-47D breast = test system: T-47D breast
TK-10 renal = test system: TK-10 renal
NCI/ADR-RES ovarian = test system: NCI/ADR-RES ovarian
RPMI-8226 leukemia = test system: RPMI-8226 leukemia
SNB-19 CNS = test system: SNB-19 CNS
U251 CNS = test system: U251 CNS
NCI-H226 lung = test system: NCI-H226 lung
BT-549 breast = test system: BT-549 breast
HCT-15 colon = test system: HCT-15 colon
SF-539 CNS = test system: SF-539 CNS
OVCAR-4 ovarian = test system: OVCAR-4 ovarian
UO-31 renal = test system: UO-31 renal
SF-268 CNS = test system: SF-268 CNS
RXF 393 renal = test system: RXF 393 renal
SN12C renal = test system: SN12C renal
KM12 colon = test system: KM12 colon
OVCAR-8 ovarian = test system: OVCAR-8 ovarian
NCI-H23 lung = test system: NCI-H23 lung
M14 melanoma = test system: M14 melanoma
PC-3 prostate = test system: PC-3 prostate
SK-MEL-2 melanoma = test system: SK-MEL-2 melanoma
CCRF-CEM leukemia = test system: CCRF-CEM leukemia
MALME-3M melanoma = test system: MALME-3M melanoma
MDA-MB-435 = test system: MDA-MB-435
SR leukemia = test system: SR leukemia
SF-295 CNS = test system: SF-295 CNS
OVCAR-3 ovarian = test system: OVCAR-3 ovarian
HCT-116 colon = test system: HCT-116 colon
OVCAR-5 ovarian = test system: OVCAR-5 ovarian
NCI-H460 lung = test system: NCI-H460 lung
SK-MEL-28 melanoma = test system: SK-MEL-28 melanoma
UACC-62 melanoma = test system: UACC-62 melanoma
HCC-2998 colon = test system: HCC-2998 colon
NCI-H522 lung = test system: NCI-H522 lung
SK-OV-3 ovarian = test system: SK-OV-3 ovarian
SNB-75 CNS = test system: SNB-75 CNS
MOLT-4 leukemia = test system: MOLT-4 leukemia
COLO 205 colon = test system: COLO 205 colon
ACHN renal = test system: ACHN renal
HOP-92 NSCLC = test system: HOP-92 NSCLC

## O=C(COc1nc2ccccc2nc1-c1ccccc1)Nc1ccc(Cl)cc1
SK-MEL-5 melanoma
  GI50: 4.17 µM
  TGI: 19.7 µM
UACC-257 melanoma
  GI50: 50.1 µM
  TGI: > 100 µM
DU-145 prostate
  GI50: 54.9 µM
  TGI: > 100 µM
HOP-62 NSCLC
  GI50: 11.9 µM
  TGI: 40.2 µM
EKVX NSCLC
  GI50: 26.9 µM
  TGI: > 100 µM
SW-620 colon
  GI50: 25.7 µM
  TGI: > 100 µM
A549 NSCLC
  GI50: 27.8 µM
  TGI: > 100 µM
CAKI-1 renal
  GI50: 9.04 µM
  TGI: > 100 µM
786-0 renal
  GI50: 14.3 µM
  TGI: 71.3 µM
HT29 colon
  GI50: 11.4 µM
  TGI: > 100 µM
LOX IMVI melanoma
  GI50: 15.7 µM
  TGI: 49.2 µM
MDA-MB-231 breast
  GI50: 15.1 µM
  TGI: 65 µM
MCF7 breast
  GI50: 36.8 µM
  TGI: > 100 µM
IGROV1 ovarian
  GI50: 14.3 µM
  TGI: 49.4 µM
T-47D breast
  GI50: 37.5 µM
  TGI: > 100 µM
TK-10 renal
  GI50: 15.1 µM
  TGI: 76.8 µM
NCI/ADR-RES ovarian
  GI50: 4.46 µM
  TGI: > 100 µM
RPMI-8226 leukemia
  GI50: 23.1 µM
  TGI: > 100 µM
SNB-19 CNS
  GI50: 21.6 µM
  TGI: 89.1 µM
U251 CNS
  GI50: 13.2 µM
  TGI: 56.4 µM
NCI-H226 lung
  GI50: 10.2 µM
  TGI: 49.1 µM
BT-549 breast
  GI50: 33.6 µM
  TGI: > 100 µM
HCT-15 colon
  GI50: 15.1 µM
  TGI: > 100 µM
SF-539 CNS
  GI50: 14.5 µM
  TGI: 45.4 µM
OVCAR-4 ovarian
  GI50: 27.7 µM
  TGI: > 100 µM
UO-31 renal
  GI50: 17.1 µM
  TGI: > 100 µM
SF-268 CNS
  GI50: 18.5 µM
  TGI: > 100 µM
RXF 393 renal
  GI50: 29.3 µM
  TGI: 80 µM
SN12C renal
  GI50: 27.4 µM
  TGI: > 100 µM
KM12 colon
  GI50: 8.38 µM
  TGI: > 100 µM
OVCAR-8 ovarian
  GI50: 11.3 µM
  TGI: > 100 µM
NCI-H23 lung
  GI50: 24.9 µM
  TGI: > 100 µM
M14 melanoma
  GI50: 11.4 µM
  TGI: 80.7 µM
PC-3 prostate
  GI50: 9.99 µM
  TGI: > 100 µM
SK-MEL-2 melanoma
  GI50: 15.1 µM
  TGI: 58 µM
CCRF-CEM leukemia
  GI50: 17.3 µM
  TGI: > 100 µM
MALME-3M melanoma
  GI50: 20.9 µM
  TGI: 66.3 µM
MDA-MB-435
  GI50: 18.4 µM
  TGI: > 100 µM
SR leukemia
  GI50: 6.54 µM
  TGI: > 100 µM
SF-295 CNS
  GI50: 5.09 µM
  TGI: 40.1 µM
OVCAR-3 ovarian
  GI50: 5.56 µM
  TGI: 36.9 µM
HCT-116 colon
  GI50: 6.23 µM
  TGI: 27.8 µM
OVCAR-5 ovarian
  GI50: 11 µM
  TGI: > 100 µM
NCI-H460 lung
  GI50: 9.79 µM
  TGI: 77.8 µM
SK-MEL-28 melanoma
  GI50: 18.7 µM
  TGI: > 100 µM
UACC-62 melanoma
  GI50: 12.9 µM
  TGI: 67.7 µM
HCC-2998 colon
  GI50: 15.6 µM
  TGI: > 100 µM
NCI-H522 lung
  GI50: 3.5 µM
  TGI: 28.6 µM
SK-OV-3 ovarian
  GI50: 47.6 µM
  TGI: > 100 µM
SNB-75 CNS
  GI50: 27.7 µM
  TGI: > 100 µM
MOLT-4 leukemia
  GI50: 12.6 µM
  TGI: > 100 µM
COLO 205 colon
  GI50: 15.5 µM
  TGI: > 100 µM
ACHN renal
  GI50: 14.4 µM
  TGI: 37.9 µM
HOP-92 NSCLC
  GI50: 8.77 µM
  TGI: 36.7 µM
